US8192962B2, “Processes for detecting toxic substances” (Daikin Industries, Ltd., priority 2001, dated 2012)

Tested on: Energy system protein genes
Assay: DNA chip mRNA expression in yeast, energy system protein genes (Table 4)
Type: cell-based, Saccharomyces cerevisiae S288C
In short: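 Cells were grown at 25° C. in YPD, treated at logarithmic phase for 2 h with a chemical at a concentration inhibiting growth but not causing death, and compared with untreated cultures. Labeled cDNA was hybridized to a DNA chip carrying all yeast genes, and the expression ratio was taken from scanner fluorescence.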

For `[Cl][Hg][Cl]` [(3), HgCl2], the “The level of expressed mRNA in the presence of chemical substance/The level of expressed mRNA in the absence of chemical substance” value (yeast gene YAL060W) was 3.2, the “The level of expressed mRNA in the presence of chemical substance/The level of expressed mRNA in the absence of chemical substance” value (yeast gene YBL058W, cells incubated two hours with the chemical substance) was 0.5 and the “The level of expressed mRNA in the presence of chemical substance/The level of expressed mRNA in the absence of chemical substance” value (yeast gene YBL099W, cells incubated two hours with the chemical substance) was 3.1. The “The level of expressed mRNA in the presence of chemical substance/The level of expressed mRNA in the absence of chemical substance” value (yeast gene YBR001C, cells incubated two hours with the chemical substance) was 1.1, the “The level of expressed mRNA in the presence of chemical substance/The level of expressed mRNA in the absence of chemical substance” value (yeast gene YBR185C, cells incubated two hours with the chemical substance) was 1.3 and the “The level of expressed mRNA in the presence of chemical substance/The level of expressed mRNA in the absence of chemical substance” value (yeast gene YBR221C, cells incubated two hours with the chemical substance) was 3.2. For the same compound, the “The level of expressed mRNA in the presence of chemical substance/The level of expressed mRNA in the absence of chemical substance” value (yeast gene YCL040W) was 10.1, the “The level of expressed mRNA in the presence of chemical substance/The level of expressed mRNA in the absence of chemical substance” value (yeast gene YCR012W) was 5.1 and the “The level of expressed mRNA in the presence of chemical substance/The level of expressed mRNA in the absence of chemical substance” value (yeast gene YCR046C, cells incubated two hours with the chemical substance) was 1.2. For the same compound, the “The level of expressed mRNA in the presence of chemical substance/The level of expressed mRNA in the absence of chemical substance” value (yeast gene YCR105W, cells incubated two hours with the chemical substance) was 1.2, the “The level of expressed mRNA in the presence of chemical substance/The level of expressed mRNA in the absence of chemical substance” value (yeast gene YDL021W) was 2.4 and the “The level of expressed mRNA in the presence of chemical substance/The level of expressed mRNA in the absence of chemical substance” value (yeast gene YDL067C, cells incubated two hours with the chemical substance) was 1.6. For the same compound, the “The level of expressed mRNA in the presence of chemical substance/The level of expressed mRNA in the absence of chemical substance” value (yeast gene YDL078C, cells incubated two hours with the chemical substance) was 1.2, the “The level of expressed mRNA in the presence of chemical substance/The level of expressed mRNA in the absence of chemical substance” value (yeast gene YDL107W, cells incubated two hours with the chemical substance) was 1.0 and the “The level of expressed mRNA in the presence of chemical substance/The level of expressed mRNA in the absence of chemical substance” value (yeast gene YDL174C) was 0.9. The “The level of expressed mRNA in the presence of chemical substance/The level of expressed mRNA in the absence of chemical substance” value (yeast gene YDL181W, cells incubated two hours with the chemical substance) was 1.9, the “The level of expressed mRNA in the presence of chemical substance/The level of expressed mRNA in the absence of chemical substance” value (yeast gene YDR001C) was 2.6 and the “The level of expressed mRNA in the presence of chemical substance/The level of expressed mRNA in the absence of chemical substance” value (yeast gene YDR050C, cells incubated two hours with the chemical substance) was 2.3. The “The level of expressed mRNA in the presence of chemical substance/The level of expressed mRNA in the absence of chemical substance” value (yeast gene YDR079W, cells incubated two hours with the chemical substance) was 0.8, the “The level of expressed mRNA in the presence of chemical substance/The level of expressed mRNA in the absence of chemical substance” value (yeast gene YDR178W, cells incubated two hours with the chemical substance) was 3.4 and the “The level of expressed mRNA in the presence of chemical substance/The level of expressed mRNA in the absence of chemical substance” value (yeast gene YDR231C) was 1.0. For the same compound, the “The level of expressed mRNA in the presence of chemical substance/The level of expressed mRNA in the absence of chemical substance” value (yeast gene YDR298C, cells incubated two hours with the chemical substance) was 2.6, the “The level of expressed mRNA in the presence of chemical substance/The level of expressed mRNA in the absence of chemical substance” value (yeast gene YDR377W, cells incubated two hours with the chemical substance) was 1.3 and the “The level of expressed mRNA in the presence of chemical substance/The level of expressed mRNA in the absence of chemical substance” value (yeast gene YDR529C, cells incubated two hours with the chemical substance) was 0.9. The “The level of expressed mRNA in the presence of chemical substance/The level of expressed mRNA in the absence of chemical substance” value (yeast gene YEL024W, cells incubated two hours with the chemical substance) was 3.8, the “The level of expressed mRNA in the presence of chemical substance/The level of expressed mRNA in the absence of chemical substance” value (yeast gene YEL039C, cells incubated two hours with the chemical substance) was 1.3 and the “The level of expressed mRNA in the presence of chemical substance/The level of expressed mRNA in the absence of chemical substance” value (yeast gene YER178W) was 3.6. For the same compound, the “The level of expressed mRNA in the presence of chemical substance/The level of expressed mRNA in the absence of chemical substance” value (yeast gene YFL057C) was 1.5, the “The level of expressed mRNA in the presence of chemical substance/The level of expressed mRNA in the absence of chemical substance” value (yeast gene YFR053C) was 3.0 and the “The level of expressed mRNA in the presence of chemical substance/The level of expressed mRNA in the absence of chemical substance” value (yeast gene YGL018C, cells incubated two hours with the chemical substance) was 1.8. For the same compound, the “The level of expressed mRNA in the presence of chemical substance/The level of expressed mRNA in the absence of chemical substance” value (yeast gene YGL062W) was 1.1, the “The level of expressed mRNA in the presence of chemical substance/The level of expressed mRNA in the absence of chemical substance” value (yeast gene YGL187C, cells incubated two hours with the chemical substance) was 1.6 and the “The level of expressed mRNA in the presence of chemical substance/The level of expressed mRNA in the absence of chemical substance” value (yeast gene YGL191W, cells incubated two hours with the chemical substance) was 1.4. For the same compound, the “The level of expressed mRNA in the presence of chemical substance/The level of expressed mRNA in the absence of chemical substance” value (yeast gene YGL205W, cells incubated two hours with the chemical substance) was 0.7, the “The level of expressed mRNA in the presence of chemical substance/The level of expressed mRNA in the absence of chemical substance” value (yeast gene YGL256W, cells incubated two hours with the chemical substance) was 1.1 and the “The level of expressed mRNA in the presence of chemical substance/The level of expressed mRNA in the absence of chemical substance” value (yeast gene YGR043C) was 3.2. For the same compound, the “The level of expressed mRNA in the presence of chemical substance/The level of expressed mRNA in the absence of chemical substance” value (yeast gene YGR062C, cells incubated two hours with the chemical substance, 25° C., YPD medium) was 0.7, the “The level of expressed mRNA in the presence of chemical substance/The level of expressed mRNA in the absence of chemical substance” value (yeast gene YGR087C, cells incubated two hours with the chemical substance) was 1.7 and the “The level of expressed mRNA in the presence of chemical substance/The level of expressed mRNA in the absence of chemical substance” value (yeast gene YGR174C, cells incubated two hours with the chemical substance) was 0.6. For the same compound, the “The level of expressed mRNA in the presence of chemical substance/The level of expressed mRNA in the absence of chemical substance” value (yeast gene YGR192C) was 3.8, the “The level of expressed mRNA in the presence of chemical substance/The level of expressed mRNA in the absence of chemical substance” value (yeast gene YGR244C) was 1.6 and the “The level of expressed mRNA in the presence of chemical substance/The level of expressed mRNA in the absence of chemical substance” value (yeast gene YGR254W) was 3.8. For the same compound, the “The level of expressed mRNA in the presence of chemical substance/The level of expressed mRNA in the absence of chemical substance” value (yeast gene YHR179W) was 2.6, the “The level of expressed mRNA in the presence of chemical substance/The level of expressed mRNA in the absence of chemical substance” value (yeast gene YIL160C) was 2.3 and the “The level of expressed mRNA in the presence of chemical substance/The level of expressed mRNA in the absence of chemical substance” value (yeast gene YIR031C, cells incubated two hours with the chemical substance) was 0.6. For the same compound, the “The level of expressed mRNA in the presence of chemical substance/The level of expressed mRNA in the absence of chemical substance” value (yeast gene YJL052W) was 4.0, the “The level of expressed mRNA in the presence of chemical substance/The level of expressed mRNA in the absence of chemical substance” value (yeast gene YJL121C, cells incubated two hours with the chemical substance) was 1.9 and the “The level of expressed mRNA in the presence of chemical substance/The level of expressed mRNA in the absence of chemical substance” value (yeast gene YJL166W, cells incubated two hours with the chemical substance) was 1.6. The “The level of expressed mRNA in the presence of chemical substance/The level of expressed mRNA in the absence of chemical substance” value (yeast gene YJL216C, cells incubated two hours with the chemical substance) was 2.2 and the “The level of expressed mRNA in the presence of chemical substance/The level of expressed mRNA in the absence of chemical substance” value (yeast gene YJR009C) was 5.6.
